Measured values reported in ChEMBL document CHEMBL1124011, “Retinobenzoic acids. 1. Structure-activity relationships of aromatic amides with retinoidal activity” (1988).
Activity calls are given as the source filed them. The calls are words filed in the database; no cut-off is given here.

Columns and labels:
[1] = test system: Panel leukemia (Carcinoma cell lines); assay: Effective dose for differentiation-inducing activity against human promyelocytic leukemia cells; type: functional, cell-based
[2] = Ratio of the ED50 of compound to that of ED50 of retinoic acid, expressed as relative activity; type: functional
[3] = test system: Panel leukemia (Carcinoma cell lines); assay: Effective dose for differentiation -inducing activity against human promyelocytic leukemia cells; type: functional; settings: read-out: ED50 (the source's name)

| SMILES | EC50 [3] [nM] | ED50 [1] | Ratio [2] |
| --- | --- | --- | --- |
| O=C(O)c1ccc(C(=O)Nc2cccc3c2CCCC3)cc1 | – | inactive | – |
| O=C(O)c1ccc(C(=O)Nc2ccc3c(c2)C2CCC3CC2)cc1 | > 10000 | – | < 0.001 |
| CC(C)c1cc(NC(=O)c2ccc(C(=O)O)cc2)cc(C(C)C)c1 | 38 | – | 0.042 |
| CC1(C)CCOc2ccc(NC(=O)c3ccc(C(=O)O)cc3)cc21 | > 1000 | – | < 0.0001 |
| CC1(C)CCC(C)(C)c2cc(NC(=O)c3ccc(C(=O)O)cc3)ccc21 [TAMIBAROTENE] | 0.79 | – | 3.5 |
| CC1(C)CCC(C)(C)c2c(NC(=O)c3ccc(C(=O)O)cc3)cccc21 | > 1000 | – | < 0.0001 |
| O=C(O)c1ccc(C(=O)Nc2ccc3ccccc3c2)cc1 | – | inactive | 3.5 |
| O=C(O)c1ccc(C(=O)Nc2cccc(-c3ccccc3)c2)cc1 | – | inactive | – |
| CC1(C)CCS(=O)(=O)c2ccc(C(=O)Nc3ccc(C(=O)O)cc3)cc21 | – | inactive | – |
| O=C(O)c1ccc(C(=O)Nc2cccc(Br)c2)cc1 | – | inactive | – |
| CC(C)c1ccc(NC(=O)c2ccc(C(=O)O)cc2)cc1 | 910 | – | 9.8 |
| O=C(O)c1ccc(NC(=O)c2ccccc2)cc1 | – | inactive | – |
| CC(C)c1ccccc1NC(=O)c1ccc(C(=O)O)cc1 | – | inactive | – |
| O=C(O)c1ccc(C(=O)Nc2cccc3ccccc23)cc1 | – | inactive | – |
| CC(C)c1ccc(C(C)C)c(NC(=O)c2ccc(C(=O)O)cc2)c1 | – | inactive | – |
| CC(C)c1ccc(C(=O)Nc2ccc(C(=O)O)cc2)cc1C(C)C | 68 | – | 0.04 |
| Cc1cc2c(cc1NC(=O)c1ccc(C(=O)O)cc1)C(C)(C)CCC2(C)C | 350 | – | 0.006 |
| CC12CCC(C)(CC1)c1cc(NC(=O)c3ccc(C(=O)O)cc3)ccc12 | 68 | – | 0.059 |
| CN(C)c1cccc(NC(=O)c2ccc(C(=O)O)cc2)c1 | – | inactive | – |
| CC(C)(C)c1cccc(NC(=O)c2ccc(C(=O)O)cc2)c1 | 700 | – | 3.2 |
| O=C(O)c1ccc(C(=O)Nc2ccccc2)cc1 | – | inactive | – |
| CCc1cccc(NC(=O)c2ccc(C(=O)O)cc2)c1 | – | inactive | – |
| CC(C)c1ccc(NC(=O)c2ccc(C(=O)O)cc2)c(C(C)C)c1 | – | inactive | – |
| CC(C)(C)c1ccc(C(=O)Nc2ccc(C(=O)O)cc2)cc1 | > 10000 | – | < 0.001 |
| CC(C)(C)c1ccc(NC(=O)c2ccc(C(=O)O)cc2)cc1 | > 10000 | – | < 0.001 |
| CC1(C)CCC(C)(C)c2cc(C(=O)Nc3ccc(C(=O)O)cc3)ccc21 | 0.34 | – | 7.2 |
| CC(C)c1cccc(C(C)C)c1NC(=O)c1ccc(C(=O)O)cc1 | – | inactive | – |
| CC1(C)CCC(C)(C)c2cc([N+](=O)[O-])c(NC(=O)c3ccc(C(=O)O)cc3)cc21 | > 10000 | – | < 0.001 |
| CC(C)(C)c1cc(C(C)(C)C)c(NC(=O)c2ccc(C(=O)O)cc2)c(C(C)(C)C)c1 | – | inactive | – |
| Cc1cccc(NC(=O)c2ccc(C(=O)O)cc2)c1 | – | inactive | – |

Now from value to molecule, other results behind:

| EC50 [3] [nM] | SMILES | ED50 [1] | Ratio [2] |
| --- | --- | --- | --- |
| > 1000 | CC1(C)CCC(C)(C)c2cc(NC(=O)c3ccc(C(=O)O)cc3)c(Br)cc21 | – | < 0.0001 |
| 48 | CC(C)(C)c1cc(C(=O)Nc2ccc(C(=O)O)cc2)cc(C(C)(C)C)c1 | – | 0.056 |
| > 1000 | O=C(O)c1ccc(C(=O)Nc2cccc(C3CCCCC3)c2)cc1 | – | < 0.0001 |
| 2.4 | CC1=C(/C=C/C(C)=C/C=C/C(C)=C/C(=O)O)C(C)(C)CCC1 [TRETINOIN] | – | 1 |
| 36 | CC(C)(C)c1cc(NC(=O)c2ccc(C(=O)O)cc2)cc(C(C)(C)C)c1 | – | 0.15 |
| > 1000 | CN(C(=O)c1ccc(C(=O)O)cc1)c1ccc2c(c1)C(C)(C)CCC2(C)C | – | < 0.0001 |
| > 1000 | CN(C(=O)c1ccc2c(c1)C(C)(C)CCC2(C)C)c1ccc(C(=O)O)cc1 | – | < 0.0001 |
| 680 | CC(C)c1cccc(NC(=O)c2ccc(C(=O)O)cc2)c1 | – | 1.3 |
| 75 | CC1(C)CCOc2c(Cl)cc(C(=O)Nc3ccc(C(=O)O)cc3)cc21 | – | 0.037 |
| > 10000 | CC(C)(C)c1cccc(C(=O)Nc2ccc(C(=O)O)cc2)c1 | – | < 0.001 |
| 560 | CC1(C)CCC(C)(C)c2cc(NC(=O)c3ccc(C(=O)O)cc3)c(N)cc21 | – | 0.011 |
| 2.1 | CC(C)c1ccc(NC(=O)c2ccc(C(=O)O)cc2)cc1C(C)C | – | 1.4 |
| 260 | CCc1ccc(NC(=O)c2ccc(C(=O)O)cc2)cc1CC | – | 0.0077 |
| 73 | CC1(C)CCSc2ccc(NC(=O)c3ccc(C(=O)O)cc3)cc21 | – | 0.051 |
| 800 | CC1(C)CCOc2ccc(C(=O)Nc3ccc(C(=O)O)cc3)cc21 | – | 0.0035 |
